Measured values as given in paper PMC3772838, “Preclinical Development of a Novel Class of CXCR4 Antagonist Impairing Solid Tumors Growth and Metastases” (PLoS ONE, 2013).

Assays:
[1] = tested on: PES43 human melanoma cells; assay: CXCL12-dependent Transwell migration of PES43 cells; format: cell-based; details: 100 ng/mL CXCL12 in lower chamber, 16 h, tested 10 nM, 100 nM, 1 µM, 10 µM
Protocol: (§1) Migration was assayed in 24-well Transwell chambers (Corning Inc., Corning, NY) using inserts with an 8-µm pore membrane. Membranes were precoated with collagen (human collagen type I/III) and fibronectin (20 µg/mL each). […] After 16 h incubation, cells on the upper surface of the filter were removed using a cotton wool swab; migration of cells in migration media alone was compared with migration in media containing CXCL12. The cells were counted in ten different fields (original magnification ×40). The migration index was defined as the ratio between migrating cells in the experimental group and migrated cells in the control group. For the wound closure assay, tested cells were allowed to reach confluence in six-well plates containing serum-depleted growth medium and scratched with pipette tips to make wounds. The wound closure was observed microscopically 6 hours post-wounding (OKO Time Lapse).
(§2) Experiments were conducted using PES43 cells. (A) Migration was assayed in 24-well Transwell chambers using inserts with 8-µm pore membrane. […] Migrated cells on the lower surface were fixed, stained with H&E and counted microscopically. The results are expressed as the migration index relative to migration in presence of BSA alone. […] Images were acquired with OKO Time Lapse. […] PES43 cells were serum-starved and incubated with CXCL12 (100 ng/ml) alone or in presence of AMD3100/peptides. Each peptide was tested in at least three different experiments. Double tailed T-Test was used for statistical analyses. Differences were considered significant at P<0.05 compared to control.

[2] = tested on: P-ERK1/2; assay: CXCL12-induced p-ERK induction (immunoblotting); format: cell-based, human; details: PES43 cells serum-starved, CXCL12 100 ng/ml, after 5 minutes
Protocol: Cells were homogenized in lysis buffer (40 mM Hepes pH 7,5, 120 mM NaCl, 5 mM MgCl2, 1 mM EGTA, 0,5 mM EDTA, 1% Triton X-100) containing protease (Complete Tablets- EDTA-free, Roche) and phosphatase inhibitors (20 mM α-glycerol-3-phosphate, 2,5 mM Na-pyrophosphate). The following primary antibodies were used: anti-p-ERK (sc7383, Santa Cruz Biotechnology, Inc., Santa Cruz, CA, USA) and anti-ERK2 (sc 154G, Santa Cruz Biotechnology CA, USA). P-Erk induction was plotted as ratio P-Erk in the presence of CXCL12 (100 ng/ml)/P-Erk in serum free.
as §2
PES43 cell lines were serum starved for 16 hours. […] (TIF) Click here for additional data file.

[3] = tested on: CXCR4; assay: CXCL12-induced calcium mobilization assay (Fluo-3 AM); format: cell-based, human; details: CCRF-CEM cells, 10 µM peptide, percent of fluorescence with CXCL12 alone; at least three experiments
Protocol: For the calcium efflux studies a 2 mg/mL stock solution of Fluo-3 acetoxymethylester (Invitrogen, Carlsbad, CA) in anhydrous DMSO was used. […] CCRF–CEM cells were resuspended in cell loading buffer (PBS, 1% FCS, 1 mmol/L MgCl2, and 1 mmol/L CaCl2) at 5×10^5 cells/mL. Fluo-3AM and Pluronic acid were added to each sample to increase Fluo-3AM solubility and improve dye loading into the cells. Baseline calcium efflux was established, then chemokines were added as indicated and chemokine-induced calcium efflux was measured.
(§3) (A) The amount of peptides or AMD3100 bound was assessed indirectly by flow cytometry using the PE-labelled anti-CXCR4 antibody (clone 12G5). Results are expressed as the percent antibody bound. (B) The Ca^2+ influx assay was performed using CCRF-CEM cells and Fluo-3 AM calcium indicator. CCRF-CEM cells were incubated 30 minutes at 37°C with Fluo-3 AM and 15 minutes with AMD3100 (10 µM)/peptides (10 µM) and then treated with CXCL12. Results are expressed as the percent of Fluo-3 AM fluorescence in presence of CXCL12 alone. Each peptide was tested in at least three different experiments. Double tailed T-Test was used for statistical analyses. Differences were considered significant at P<0.05 compared to control. Control (CTRL).

[4] = tested on: CXCR4; assay: Competition with 12G5 anti-CXCR4 antibody binding (flow cytometry); design: species or system human; details: CCRF-CEM cells, 10 µM peptide, 30 min pre-incubation at 37°C, PE-labelled 12G5, flow cytometry; at least three experiments
Protocol: (§4) CXCR4 binding was evaluated as previously described. Briefly 5×10^5 CCRF–CEM cells were pre-incubated with 10 µM peptides or AMD3100 in binding buffer (PBS 1× plus 0.2% BSA and 0.1% NaN3) for 30 minutes at 37°C, 5% CO2 and then labeled for 30 minutes with anti-CXCR4 PE-antibody (FAB170P, clone 12G5, R&D Systems, Minneapolis, MN, USA). The cells were analyzed by FACS Canto II cytofluorometer (Becton Dickinson Immunocytometry Systems, Mountain View, CA, USA).
as §3

[5] = tested on: PES43 human melanoma cells; assay: CXCL12-mediated wound closure assay; format: cell-based; details: 6 hours post-wounding
Protocol: as §1, §2

[6] = tested on: SN12C-EGFP renal cancer cells; assay: SN12C-pEGFP subcutaneous xenograft tumor growth; format: in vivo, CD1 nude mice; details: IP 10 days, peptides 2 mg/kg, AMD3100 1.25 mg/kg; measured a week later by fluorescence stereomicroscope; control 65.97±35.1; average
Protocol: (§5) All mice were obtained from Harlan (Bar Harbor, ME, USA) and their care was in accord with institutional guidelines. Twenty-five 6-8-week-old female C57BL/6 mice were inoculated into the tail vein with 5×10^5 B16–CXCR4 cells pre-treated for 30 minutes with peptide S (10 µM), peptide R (10 µM), peptide I (10 µM), or AMD3100 (10 µM). Six hours later intraperitoneal (IP) treatment started with AMD3100 (1.25 mg/kg) or each peptide (2 mg/kg) in sterile PBS once a day for 10 days. A week later the mice were sacrificed. The experiment was repeated three times. The lung metastases assay was also conducted with K7M2 murine osteosarcoma cells. Twenty-five 6-8-week-old female Balb/c mice were injected via tail vein with 2.5×10^5 K7M2 cells pre-treated for 30 minutes with AMD3100 (10 µM), peptide S (10 µM), peptide R (10 µM), peptide I (10 µM) and animals were treated IP daily for 15 days with 2.5 mg/kg for AMD3100 group and 10 mg/kg for each peptide groups. A week later the mice were sacrificed. Xenograft tumor growth was evaluated using pEGFP-SN12C cells in exponential growth phase subcutaneously injected into the right flank of twenty-five 6-8-week-old female CD1 nude mice. 2×10^6 SN12C-pEGFP were injected in the right flank of each mouse and treated with AMD3100 (1.25 mg/kg) and peptides (2 mg/kg) for 10 days ip. A week later mice were euthanized and tumor volume evaluated through Leica MacroFluo fluorescence stereomicroscope (Leica microsystem, Houston, TX). The experiment was repeated three times. The Istituto Nazionale per lo Studio e la Cura dei Tumori, Fondazione Giovanni Pascale Independent Etical Comettee approved the study (CEI/600/12).
6 to 8-week-old female CD1 nude mice were injected subcutaneously with 2×10^6 pEGFP-SN12C cells pre-treated with 10 µM AMD3100 or 10 µM of each peptide. Beginning the following day mice were further treated intraperitoneally for 10 days with 1.25 mg/kg AMD3100 or 2 mg/kg of peptides R, I or S. A week later mice were euthanized and tumor volume evaluated directly from the flank of mice using a Leica MacroFluo fluorescence stereomicroscope (Leica microsystem, Houston, TX) (A). The experiments were repeated three times. B. SN12C-PEGFP cells migration toward CXCL12 in the presence of AMD3100 or Peptide R, S and I.

[7] = tested on: B16-CXCR4 murine melanoma cells; assay: B16-CXCR4 melanoma lung metastases model; format: in vivo, C57BL/6 mice; details: cells pre-treated 30 min with 10 µM, IP once a day for 10 days, peptides 2 mg/kg, AMD3100 1.25 mg/kg
Protocol: as §5
(A) B16-CXCR4 tumor cells pre-treated for 30 minutes with AMD3100 (10 µM), peptide R (10 µM), peptide I (10 µM), or peptide S (10 µM) were inoculated into the tail vein of C57/B female mice and the mice were further treated intraperitoneally for 10 days with 1.25 mg/kg AMD3100, or 2 mg/kg peptide R, peptide I or peptide S. Gross examination of representative lungs; (B) Graphical representation of the number of lung metastases in treated mice. Double tailed T-Test was used for statistical analyses. The experiments were repeated three times.

[8] = tested on: CXCR3; assay: Anti-CXCR3 antibody (clone 1C6/CXCR3) binding in CXCR3 overexpressing cells; design: species or system human; details: COLO205 cells; peptides 10 µM, CXCL11 100 nM, 30 min pre-incubation; Figure S3
Protocol: [The procedure below names another target; the source says it served here with some conditions changed.] as §4
(§6) Fluo-3AM and Pluronic acid were added to each sample to increase Fluo-3AM solubility and improve dye loading into the cells. (TIF) Click here for additional data file.

[9] = tested on: CXCR7; assay: Anti-CXCR7 antibody (clone 11G8) binding in CXCR7 overexpressing cells; design: species or system human; details: MCF-7 cells; peptides 10 µM, CXCL11 100 nM, 30 min pre-incubation; Figure S3
Protocol: [The procedure below names another target; the source says it served here with some conditions changed.] as §4, §6

Compound | concentration at which CXCL12-dependent migration was inhibited [1] | CXCL12-mediated p-ERK induction [2] | CXCL12-induced calcium efflux (Fluo-3 AM fluorescence) [3] | association of the 12G5-CXCR4 antibody to the receptor [4] | CXCL12-mediated wound healing [5] | tumor volume of SN12C-GFP xenograft [6] | fold reduction of the number of lung metastases vs control [7] | number of lung metastases ([7]; control 8.4±3.49, average) | binding to CXCR3 (anti-CXCR3 antibody) [8] | binding to CXCR7 (anti-CXCR7 antibody) [9]
Arg-Ala-[Cys-Arg-Tyr-Trp-Cys] [Peptide T] | ≤ 10 nM | not | 33.65 % of control | 22 % of control | delayed | – | – | – | – | –
c1cc(CN2CCCNCCNCCCNCC2)ccc1CN1CCCNCCNCCCNCC1 [AMD3100, reference compound] | – | reduced | – | – | – | 35.53±10.42 mm^3 | 5.6 fold | 1.5±2.9 | – | –
CXCL11: specific ligand (chemokine) that inhibited antibody binding to CXCR3 or CXCR7 | – | – | – | – | – | – | – | – | inhibited | inhibited
